# Test system: HCT-116
# Assay: Antiproliferative activity against human HCT116 cells assessed as reduction in cell viability incubated for 72 hrs by MTT assay
# Assay type: functional, cell-based
# Settings: HCT-116, 72 h
row,Compound,IC50 [µM]
1,CC(=O)CC(=O)/C=C/c1ccc(O)c(O)c1,5.2
2,COc1cc(CCC(=O)CC(C)=O)ccc1O,182
3,COc1cc(/C=C/C(=O)CC(C)=O)ccc1O,1.4
4,CC(=O)CC(=O)/C=C/c1ccc(O)cc1,36
5,COc1ccc(/C=C/C(=O)CC(C)=O)cc1OC,4.7
6,CC(=O)CC(=O)CCc1ccc(O)cc1,213
7,COc1ccc(CCC(=O)CC(C)=O)cc1OC,215
8,COc1cc(/C=C/C(=O)CC(C)=O)cc(OC)c1OC,28.8
9,COc1cc(/C=C/C(=O)CC(C)=O)cc(OC)c1O,24.7
10,COc1cc(OC)c(/C=C/C(=O)CC(C)=O)c(OC)c1,8.5
11,COc1cc(OC)c(CCC(=O)CC(C)=O)c(OC)c1,139
12,COc1cc(CCC(=O)CC(C)=O)cc(OC)c1OC,138
13,COc1cc(/C=C/C(=O)CC(=O)/C=C/c2ccc(O)c(OC)c2)ccc1O [CURCUMIN],10.5
